The target in assay [1] is T1, CCK-A (Rattus norvegicus, UniProt P30551).
T1 sequence (P30551 1-444): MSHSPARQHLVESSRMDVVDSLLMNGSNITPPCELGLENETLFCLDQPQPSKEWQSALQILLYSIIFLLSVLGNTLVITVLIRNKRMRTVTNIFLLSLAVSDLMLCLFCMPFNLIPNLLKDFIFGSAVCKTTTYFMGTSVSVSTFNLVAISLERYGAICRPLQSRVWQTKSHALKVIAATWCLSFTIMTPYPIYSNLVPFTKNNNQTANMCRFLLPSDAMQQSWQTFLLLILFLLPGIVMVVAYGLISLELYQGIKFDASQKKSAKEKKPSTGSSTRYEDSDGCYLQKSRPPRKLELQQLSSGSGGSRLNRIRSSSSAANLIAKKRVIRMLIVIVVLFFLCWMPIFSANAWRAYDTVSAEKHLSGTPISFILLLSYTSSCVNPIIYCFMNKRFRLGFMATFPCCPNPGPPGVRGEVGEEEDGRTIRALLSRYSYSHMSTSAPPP
Put plainly: biochemical. Format: binding. The protocol: The CCK-A and CCK-B antagonising activity of the compounds described herein was evaluated using the assays described in published European patent application no. 0514133. The method essentially involves determining the concentration of the test compound required to displace 50% of the specific ^125 I-CCK from rat pancreas (CCK-A) or guinea pig brain (CCK-B).

Assay [2] concerns the target T2, CCK-B (Cavia porcellus, UniProt H0VZC5).
T2 construct: guinea pig brain (CCK-B); from tissue; host or cells: guinea pig brain
T2 sequence (H0VZC5 1-426): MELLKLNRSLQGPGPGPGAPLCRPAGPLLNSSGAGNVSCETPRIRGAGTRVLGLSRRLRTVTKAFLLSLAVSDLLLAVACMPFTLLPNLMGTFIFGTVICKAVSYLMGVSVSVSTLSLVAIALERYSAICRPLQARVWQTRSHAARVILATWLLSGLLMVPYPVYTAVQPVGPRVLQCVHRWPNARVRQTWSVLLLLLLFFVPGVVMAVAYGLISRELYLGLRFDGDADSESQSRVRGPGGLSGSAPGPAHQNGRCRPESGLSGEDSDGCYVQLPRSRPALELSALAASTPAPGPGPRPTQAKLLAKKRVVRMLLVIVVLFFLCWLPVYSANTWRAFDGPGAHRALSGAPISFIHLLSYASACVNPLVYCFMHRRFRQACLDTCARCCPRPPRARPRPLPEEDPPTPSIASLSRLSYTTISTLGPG
Put plainly: displacement of specific 125I-CCK from guinea pig brain (CCK-B receptor binding). On the procedure:
The CCK-A and CCK-B antagonising activity of the compounds described herein was evaluated using the assays described in published European patent application no. 0514133. The method essentially involves determining the concentration of the test compound required to displace 50% of the specific ^125 I-CCK from rat pancreas (CCK-A) or guinea pig brain (CCK-B). The data in Table 1 were obtained for compounds of the Examples.

Where [3] appears, read: rat pancreas (CCK-A), 125I-CCK, read-out: CCK RECEPTOR BINDING RESULTS IC50 125I-CCK Pancreas.
[4] abbreviates: read-out: CCK RECEPTOR BINDING RESULTS IC50 125I-CCK Brain.
The mark [5] stands for this setting: CCK RECEPTOR BINDING RESULTS IC50 125I-CCK Pancreas, rat pancreas (CCK-A), 125I-CCK.
Setting [6] is: CCK RECEPTOR BINDING RESULTS IC50 125I-CCK Brain.

Counter-ions that a name gives are not always drawn. Like-named read-outs stand apart in the source and are kept apart here.

The term IC50 denotes the concentration at which inhibition is half-maximal. With `CC(C)CN1C(=O)C(NC(=O)c2cc3ccccc3[nH]2)N=C(N2CCC(C)CC2)c2ccccc21` (racemic) [Example 95, 3(R,S)-N-(2,3-Dihydro-5-(4-methylpiperidin-1-yl)-1-(2-methylpropyl)-2-oxo-1H-1,4-benzodiazepin-3-yl)-1H-indole-2-carboxamide], the IC50 was 11.6 nM in assay [1] (setting [3]) and 161 nM in assay [2] (setting [4]).

Take `CC1CCN(C2=NC(NC(=O)Nc3cccc(N4CCN(C)CC4)c3)C(=O)N(C)c3ccccc32)CC1` (racemic) [Example 96, N-[3(R,S)-2,3-Dihydro-1-methyl-5-(4-methylpiperidin-1-yl)-2-oxo-1H-1,4-benzodiazepin-3-yl]N'-[3-(N-methyl-N'-piperazinyl)phenyl]urea]: the IC50 in assay [1] (setting [3]) came out at 94.1 nM; in assay [2] (setting [4]), 148 nM.

As to `Cc1cccc(NC(=O)NC2N=C(N3C[C@H]4CCCC[C@H]4C3)c3ccccc3N(C)C2=O)c1` (relative stereo) [Example 57, N-[3(R,S)-2,3-Dihydro-1-methyl-5-(cis-octahydroisoindol-2-yl)-2-oxo-1H-1,4-benzodiazepin-3-yl]-N'-[3-methylphenyl]urea], the IC50 amounted to 12.3 nM in assay [1] (setting [3]) and 4.6 nM in assay [2] (setting [4]).

On to `CN1C(=O)C(NC(=O)Nc2ccc3c(c2)CCC3)N=C(N2CCC(C)(C)CC2)c2ccccc21` (single isomer, unassigned) [5 (enantiomer A)], for which the half-inhibitory concentration (IC50) in assay [1] (setting [3]) was 738 nM; in assay [2] (setting [4]) it was 0.49 nM.

Take `CN1C(=O)C(NC(=O)Nc2ccc3c(c2)CCC3)N=C(N2CCC(C)(C)CC2)c2ccccc21` (single isomer, unassigned) [5 (enantiomer B)]: the IC50 in assay [1] (setting [3]) amounted to 7.8 nM; in assay [2] (setting [4]) it was 14.8 nM.

With `Cc1cccc(NC(=O)NC2N=C(N3CCC(C)CC3)c3ccccc3N(C)C2=O)c1` (single isomer, unassigned) [8 (enantiomer A)], the results for the IC50 in assay [1] (setting [3]) and in assay [2] (setting [4]) were 981 nM and 0.35 nM, respectively.

On to `Cc1cccc(NC(=O)NC2N=C(N3CCC(C)CC3)c3ccccc3N(C)C2=O)c1` (single isomer, unassigned) [8 (enantiomer B)], for which the half-maximal inhibitory concentration (IC50) stood at 2.61 nM in assay [1] (setting [3]) and 23.2 nM in assay [2] (setting [4]).

For the compound `Cc1cccc(NC(=O)NC2N=C(N3CCC(C)(C)CC3)c3ccccc3N(C)C2=O)c1` (single isomer, unassigned) [10 (enantiomer A)], the IC50 was determined as 421 nM in assay [1] (setting [3]) and 0.76 nM in assay [2] (setting [4]).

As for `Cc1cccc(NC(=O)NC2N=C(N3CCC(C)(C)CC3)c3ccccc3N(C)C2=O)c1` (single isomer, unassigned) [10 (enantiomer B)], the IC50 in assay [1] (setting [3]) was 0.42 nM; in assay [2] (setting [4]), 12.6 nM.

As for `COC1CCN(C2=NC(NC(=O)Nc3cccc(C)c3)C(=O)N(C)c3ccccc32)CC1` (single isomer, unassigned) [14 (enantiomer A)], the IC50 in assay [1] (setting [3]) amounted to 3220 nM; in assay [2] (setting [4]), 11.6 nM.

Consider `COC1CCN(C2=NC(NC(=O)Nc3cccc(C)c3)C(=O)N(C)c3ccccc32)CC1` (single isomer, unassigned) [14 (enantiomer B)], for which the 50% inhibitory concentration (IC50) was determined as 11.4 nM in assay [1] (setting [3]) and 174 nM in assay [2] (setting [4]).

For `C[C@@H]1CCC[C@H](C)N1C1=NC(NC(=O)Nc2ccc3c(c2)CCC3)C(=O)N(C)c2ccccc21` (single isomer, unassigned) [15 (enantiomer A)], the half-maximal inhibitory concentration (IC50) was determined as 1900 nM in assay [1] (setting [3]) and 3.47 nM in assay [2] (setting [4]).

As to `C[C@@H]1CCC[C@H](C)N1C1=NC(NC(=O)Nc2ccc3c(c2)CCC3)C(=O)N(C)c2ccccc21` (single isomer, unassigned) [15 (enantiomer B)], the IC50 in assay [1] (setting [3]) amounted to 163 nM; in assay [2] (setting [4]), 75 nM.

Take `CCCN1C(=O)C(NC(=O)Nc2cccc(C)c2)N=C(N2CCC(C)CC2)c2ccccc21` (single isomer, unassigned) [18 (enantiomer A)]: the IC50 was determined as 765 nM in assay [1] (setting [3]) and 0.64 nM in assay [2] (setting [4]).

`Cc1cccc(NC(=O)NC2N=C(N3CCC(C(F)(F)F)CC3)c3ccccc3N(C)C2=O)c1` (single isomer, unassigned) [20 (enantiomer A)]: the IC50 in assay [1] (setting [3]) came out at 3290 nM; in assay [2] (setting [4]), 1.52 nM.

For `Cc1cccc(NC(=O)NC2N=C(N3CCC(C(F)(F)F)CC3)c3ccccc3N(C)C2=O)c1` (single isomer, unassigned) [20 (enantiomer B)], the values for the IC50 in assay [1] (setting [3]) and in assay [2] (setting [4]) were 40 nM and 44 nM, respectively.

With `Cc1cccc(NC(=O)NC2N=C(N3CCCCC3(C)C)c3ccccc3N(C)C2=O)c1` (single isomer, unassigned) [22 (enantiomer A)], the IC50 amounted to 3670 nM in assay [1] (setting [3]) and 32.9 nM in assay [2] (setting [4]).

Regarding `Cc1cccc(NC(=O)NC2N=C(N3[C@H](C)C[C@H](C)C[C@@H]3C)c3ccccc3N(C)C2=O)c1` (single isomer, unassigned) [24 (enantiomer A)], the IC50 amounted to 2250 nM in assay [1] (setting [3]) and 0.927 nM in assay [2] (setting [4]).

Consider `Cc1cccc(NC(=O)NC2N=C(N3[C@H](C)C[C@H](C)C[C@@H]3C)c3ccccc3N(C)C2=O)c1` (single isomer, unassigned) [24 (enantiomer B)], for which the figures for the IC50 in assay [1] (setting [3]) and in assay [2] (setting [4]) were 46 nM and 50 nM, respectively.

Take `Cc1cccc(NC(=O)NC2N=C(N3CCC(C)(C)CC3)c3ccccc3N(CC(F)(F)F)C2=O)c1` (single isomer, unassigned) [28 (enantiomer A)]: the values for the IC50 in assay [1] (setting [3]) and in assay [2] (setting [4]) were 239 nM and 27.8 nM, respectively.

As to `Cc1cccc(NC(=O)NC2N=C(N3CCC(C)(C)CC3)c3ccccc3N(CC(F)(F)F)C2=O)c1` (single isomer, unassigned) [28 (enantiomer B)], the IC50 came to 3.97 nM in assay [1] (setting [3]) and 281 nM in assay [2] (setting [4]).

On to `CCN1C(=O)C(NC(=O)Nc2cccc(C)c2)N=C(N2CCC(C)(C)CC2)c2ccccc21` (single isomer, unassigned) [Example 30], for which the concentration for half-maximal inhibition (IC50) in assay [1] (setting [3]) is 347 nM; in assay [2] (setting [4]) it was 0.36 nM.

On to `Cc1cccc(NC(=O)NC2N=C(N3CC4CCC(CC4)C3)c3ccccc3N(C)C2=O)c1` (single isomer, unassigned; (+)) [Example 34, (+)-N-[5-(3-Azabicyclo[3,2,2]nonan-3-yl)-2,3-dihydro-1-methyl-2-oxo-1H-1,4-benzodiazepin-3-yl]-N'-[3-methylphenyl]urea Hydrochloride], for which the IC50 came out at 6.46 nM in assay [1] (setting [5]) and 26.7 nM in assay [2] (setting [6]).

With `CN1C(=O)C(NC(=O)Nc2cccc(F)c2)N=C(N2CC3CCC(CC3)C2)c2ccccc21` (single isomer, unassigned; (+)) [Example 37, (+)-N-[5-(3-Azabicyclo[3,2,2]nonan-3-yl)-2,3-dihydro-1-methyl-2-oxo-1H-1,4-benzodiazepin-3-yl]-N'-[3-fluorophenyl]urea Hydrochloride], the figures for the IC50 in assay [1] (setting [5]) and in assay [2] (setting [6]) were 9 nM and 144 nM, respectively.

Consider `Cc1cccc(NC(=O)NC2N=C(N3CC4CCC(C4)C3)c3ccccc3N(C)C2=O)c1` (single isomer, unassigned; (+)) [Example 40, (+)-N-[5-(3-Azabicyclo[3,2,1]octan-3-yl)-2,3-dihydro-1-methyl-2-oxo-1H-1,4-benzodiazepin-3-yl]-N'-[3-methylphenyl]urea Hydrochloride], for which the concentration for half-maximal inhibition (IC50) in assay [1] (read-out: CCK RECEPTOR BINDING RESULTS IC50 125I-CCK Pancreas) was 8.8 nM; in assay [2] (setting [4]), 36.3 nM.

`Cc1ccc(NC(=O)NC2N=C(N3CC4CCC(CC4)C3)c3ccccc3N(C)C2=O)cc1F` (single isomer, unassigned; (+)) [Example 46, (+)-N-[5-(3-Azabicyclo[3,2,2]nonan-3-yl)-2,3-dihydro-1-methyl-2-oxo-1H-1,4-benzodiazepin-3-yl]-N'-[3-fluoro-4-methylphenyl]urea Hydrochloride]: the concentration for half-maximal inhibition (IC50) in assay [1] (setting [5]) stood at 23.7 nM; in assay [2] (setting [6]), 20.1 nM.

Consider `CN1C(=O)C(NC(=O)Nc2cccc(I)c2)N=C(N2CC3CCC(CC3)C2)c2ccccc21` (single isomer, unassigned; (+)) [Example 49, (+)-N-[5-(3-Azabicyclo[3,2,2]nonan-3-yl)-2,3-dihydro-1-methyl-2-oxo-1H-1,4-benzodiazepin-3-yl]-N'-[3-iodophenyl]urea], for which the 50% inhibitory concentration (IC50) in assay [1] (setting [3]) was 9.65 nM; in assay [2] (setting [6]), 82.7 nM.

The values above are taken from US5618812A, “Benzodiazepine derivatives” (Merck Sharp & Dohme, Ltd., priority 1992, dated 1997).
